# Reference: ChEMBL document CHEMBL1138190, “Synthesis and antibacterial activity of novel C12 vinyl ketolides” (J Med Chem, 2006)
# What was measured:
# Format in all cases: functional
# Haemophilus influenzae [1] = assay: Antibacterial activity against Haemophilus influenzae 2762
# Streptococcus pneumoniae [2] = assay: Antibacterial activity against Streptococcus pneumoniae 297-749
# Streptococcus pneumoniae [3] = assay: Antibacterial activity against Streptococcus pneumoniae Mef S 3427
# Staphylococcus aureus [4] = assay: Antibacterial activity against Staphylococcus aureus 29213
# [5] = system: Staphylococcus epidermidis; assay: Antibacterial activity against Staphylococcus epidermidis 14990
# [6] = system: Staphylococcus epidermidis; assay: Antibacterial activity against Staphylococcus epidermidis f50654
# Streptococcus pneumoniae [7] = assay: Antibacterial activity against Streptococcus pneumoniae Erm 6849
# Streptococcus pneumoniae [8] = assay: Antibacterial activity against Streptococcus pneumoniae Mef 5654
# Enterococcus faecalis [9] = assay: Antibacterial activity against Enterococcus faecalis 29212
# Streptococcus pneumoniae [10] = assay: Antibacterial activity against Streptococcus pneumoniae 280-962
# Haemophilus influenzae [11] = assay: Antibacterial activity against Haemophilus influenzae 49247
# Staphylococcus aureus [12] = assay: Antibacterial activity against Staphylococcus aureus 33591
# Streptococcus pneumoniae [13] = assay: Antibacterial activity against Streptococcus pneumoniae 49619
# Streptococcus pyogenes = assay: Antibacterial activity against Streptococcus pyogenes 8668
# Enterococcus faecalis [14] = assay: Antibacterial activity against Enterococcus faecalis bc11148-2
Structure (SMILES),MIC (Haemophilus influenzae [1]),MIC (Streptococcus pneumoniae [2]),MIC (Streptococcus pneumoniae [3]),MIC (Staphylococcus aureus [4]),MIC [5],MIC [6],MIC (Streptococcus pneumoniae [7]),MIC (Streptococcus pneumoniae [8]),MIC (Enterococcus faecalis [9]),MIC (Streptococcus pneumoniae [10]),MIC (Haemophilus influenzae [11]),MIC (Staphylococcus aureus [12]),MIC (Streptococcus pneumoniae [13]),MIC (Streptococcus pyogenes),MIC (Enterococcus faecalis [14])
C=C[C@]12OC(=O)N(CCCC(C)(C)n3cnc4ncccc43)[C@@H]1[C@@H](C)C(=O)[C@H](C)C[C@@](C)(OC)[C@H](O[C@@H]1O[C@H](C)C[C@H](N(C)C)[C@H]1O)[C@@H](C)C(=O)[C@@H](C)C(=O)O[C@@H]2CC,0.78 mg/L,≤ 0.05 mg/L,0.2 mg/L,0.2 mg/L,0.2 mg/L,0.1 mg/L,0.1 mg/L,0.78 mg/L,0.1 mg/L,≤ 0.05 mg/L,6.25 mg/L,> 50 mg/L,≤ 0.05 mg/L,≤ 0.05 mg/L,0.4 mg/L
C=C[C@]12OC(=O)N(CCN(C)Cc3cnc(-c4cccnc4)s3)[C@@H]1[C@@H](C)C(=O)[C@H](C)C[C@@](C)(OC)[C@H](O[C@@H]1O[C@H](C)C[C@H](N(C)C)[C@H]1O)[C@@H](C)C(=O)[C@@H](C)C(=O)O[C@@H]2CC,3.13 mg/L,≤ 0.05 mg/L,0.1 mg/L,0.1 mg/L,0.1 mg/L,0.1 mg/L,0.78 mg/L,0.4 mg/L,0.1 mg/L,≤ 0.05 mg/L,12.5 mg/L,> 50 mg/L,≤ 0.05 mg/L,≤ 0.05 mg/L,0.4 mg/L
C=C[C@]12OC(=O)N(CCCCn3cnc(-c4ccc(O)nc4)c3)[C@@H]1[C@@H](C)C(=O)[C@H](C)C[C@@](C)(OC)[C@H](O[C@@H]1O[C@H](C)C[C@H](N(C)C)[C@H]1O)[C@@H](C)C(=O)[C@@H](C)C(=O)O[C@@H]2CC,1.56 mg/L,≤ 0.05 mg/L,1.56 mg/L,0.4 mg/L,0.2 mg/L,0.2 mg/L,12.5 mg/L,3.13 mg/L,0.2 mg/L,≤ 0.05 mg/L,6.25 mg/L,> 50 mg/L,≤ 0.05 mg/L,≤ 0.05 mg/L,3.13 mg/L
C=C[C@]12OC(=O)N(CCN(C)Cc3cccc(-c4cccnc4)c3)[C@@H]1[C@@H](C)C(=O)[C@H](C)C[C@@](C)(OC)[C@H](O[C@@H]1O[C@H](C)C[C@H](N(C)C)[C@H]1O)[C@@H](C)C(=O)[C@@H](C)C(=O)O[C@@H]2CC,1.56 mg/L,≤ 0.05 mg/L,0.1 mg/L,0.2 mg/L,0.2 mg/L,0.1 mg/L,0.1 mg/L,0.78 mg/L,0.1 mg/L,≤ 0.05 mg/L,6.25 mg/L,> 50 mg/L,≤ 0.05 mg/L,≤ 0.05 mg/L,0.1 mg/L
C=C[C@]12OC(=O)N(CCCCn3ccc4c(N)cccc43)[C@@H]1[C@@H](C)C(=O)[C@H](C)C[C@@](C)(OC)[C@H](O[C@@H]1O[C@H](C)C[C@H](N(C)C)[C@H]1O)[C@@H](C)C(=O)[C@@H](C)C(=O)O[C@@H]2CC,3.13 mg/L,≤ 0.05 mg/L,0.1 mg/L,0.1 mg/L,0.1 mg/L,0.78 mg/L,3.13 mg/L,0.78 mg/L,≤ 0.05 mg/L,≤ 0.05 mg/L,3.13 mg/L,> 50 mg/L,≤ 0.05 mg/L,≤ 0.05 mg/L,0.625 mg/L
C=C[C@]12OC(=O)N(CCCCn3cnc(-c4cncnc4)c3)[C@@H]1[C@@H](C)C(=O)[C@H](C)C[C@@](C)(OC)[C@H](O[C@@H]1O[C@H](C)C[C@H](N(C)C)[C@H]1O)[C@@H](C)C(=O)[C@@H](C)C(=O)O[C@@H]2CC,1.56 mg/L,≤ 0.05 mg/L,0.1 mg/L,0.2 mg/L,0.2 mg/L,0.2 mg/L,0.2 mg/L,0.78 mg/L,0.1 mg/L,≤ 0.05 mg/L,3.13 mg/L,> 50 mg/L,≤ 0.05 mg/L,≤ 0.05 mg/L,0.4 mg/L
C=C[C@]12OC(=O)N(CCCCn3cnc(-c4ccc(N(C)C)nc4)c3)[C@@H]1[C@@H](C)C(=O)[C@H](C)C[C@@](C)(OC)[C@H](O[C@@H]1O[C@H](C)C[C@H](N(C)C)[C@H]1O)[C@@H](C)C(=O)[C@@H](C)C(=O)O[C@@H]2CC,1.56 mg/L,≤ 0.05 mg/L,0.2 mg/L,0.2 mg/L,0.2 mg/L,0.2 mg/L,0.78 mg/L,1.56 mg/L,0.1 mg/L,≤ 0.05 mg/L,12.5 mg/L,> 50 mg/L,≤ 0.05 mg/L,≤ 0.05 mg/L,0.78 mg/L
C=C[C@]12OC(=O)N(CCN(C)Cc3ccnc(-c4cccnc4)c3)[C@@H]1[C@@H](C)C(=O)[C@H](C)C[C@@](C)(OC)[C@H](O[C@@H]1O[C@H](C)C[C@H](N(C)C)[C@H]1O)[C@@H](C)C(=O)[C@@H](C)C(=O)O[C@@H]2CC,3.13 mg/L,≤ 0.05 mg/L,0.1 mg/L,0.2 mg/L,0.2 mg/L,0.2 mg/L,≤ 0.05 mg/L,0.4 mg/L,0.1 mg/L,≤ 0.05 mg/L,6.25 mg/L,> 50 mg/L,≤ 0.05 mg/L,≤ 0.05 mg/L,0.2 mg/L
C=C[C@]12OC(=O)N(CCCCc3ccc(-c4cccnc4)s3)[C@@H]1[C@@H](C)C(=O)[C@H](C)C[C@@](C)(OC)[C@H](O[C@@H]1O[C@H](C)C[C@H](N(C)C)[C@H]1O)[C@@H](C)C(=O)[C@@H](C)C(=O)O[C@@H]2CC,3.13 mg/L,≤ 0.05 mg/L,0.2 mg/L,0.2 mg/L,0.2 mg/L,0.2 mg/L,3.13 mg/L,0.78 mg/L,0.1 mg/L,≤ 0.05 mg/L,3.13 mg/L,12.5 mg/L,≤ 0.05 mg/L,0.1 mg/L,3.13 mg/L
C=C[C@]12OC(=O)N(CCCCc3cnc(-c4cccnc4)s3)[C@@H]1[C@@H](C)C(=O)[C@H](C)C[C@@](C)(OC)[C@H](O[C@@H]1O[C@H](C)C[C@H](N(C)C)[C@H]1O)[C@@H](C)C(=O)[C@@H](C)C(=O)O[C@@H]2CC,1.56 mg/L,≤ 0.05 mg/L,≤ 0.05 mg/L,0.1 mg/L,0.1 mg/L,0.1 mg/L,1.56 mg/L,0.4 mg/L,≤ 0.05 mg/L,≤ 0.05 mg/L,3.13 mg/L,> 50 mg/L,≤ 0.05 mg/L,≤ 0.05 mg/L,1.56 mg/L
C=C[C@]12OC(=O)N(CCCCn3cnc4cccnc43)[C@@H]1[C@@H](C)C(=O)[C@H](C)C[C@@](C)(OC)[C@H](O[C@@H]1O[C@H](C)C[C@H](N(C)C)[C@H]1O)[C@@H](C)C(=O)[C@@H](C)C(=O)O[C@@H]2CC,0.78 mg/L,≤ 0.05 mg/L,0.1 mg/L,0.2 mg/L,0.1 mg/L,0.2 mg/L,12.5 mg/L,0.78 mg/L,0.1 mg/L,≤ 0.05 mg/L,1.56 mg/L,> 50 mg/L,≤ 0.05 mg/L,≤ 0.05 mg/L,0.78 mg/L
C=C[C@]12OC(=O)N(CCCCn3cnc(-c4ccc(NC)nc4)c3)[C@@H]1[C@@H](C)C(=O)[C@H](C)C[C@@](C)(OC)[C@H](O[C@@H]1O[C@H](C)C[C@H](N(C)C)[C@H]1O)[C@@H](C)C(=O)[C@@H](C)C(=O)O[C@@H]2CC,0.78 mg/L,≤ 0.05 mg/L,0.2 mg/L,0.1 mg/L,0.2 mg/L,0.1 mg/L,0.4 mg/L,1.56 mg/L,0.1 mg/L,≤ 0.05 mg/L,3.13 mg/L,> 50 mg/L,≤ 0.05 mg/L,≤ 0.05 mg/L,0.78 mg/L
